This note sets out measurements from patent publication US5250542A, “Peripherally selective piperidine carboxylate opioid antagonists” (Eli Lilly and Company, priority 1992, dated 1993).

Where a name gives a salt, the structure may show the parent alone. Read-outs that look alike come from different tables or passages of the source.

Assay [1] deals with T1, opioid receptor (Mus musculus, UniProt P42866).
T1 construct: Five CF-1 male mice (Charles River, Portage, Mich.); from tissue; host or cells: living CF-1 male mice (in vivo test; endogenous receptor)
Put plainly: mouse writhing analgesis test: block of morphine-induced analgesia. Format: in vivo, CF-1 male mice. More on the design: unit not given here. Conditions: dose of antagonist that reduced the inhibition of writhing produced by 1.25 mg/kg morphine sulfate to 50%, subcutaneous, 20 min before acetic acid. The procedure:
In order to determine in vivo opioid receptor antagonism, the mouse writhing analgesis test was used. Test compounds were measured for their ability to block morphine-induced analgesia.
Five CF-1 male mice (Charles River, Portage, Mich.), weighing approximately 20 g after being fasted overnight, were observed simultaneously for the writhing response. The writhing response was defined as a contraction of the abdominal musculature, followed by the extension of the hind limbs, and was induced by the intraperitoneal adminstration of 0.6% acetic acid in a volumne of 1 ml/100 g body weight. The observation period was 10 min. in duration, beginning 5 min. after injection of acetic acid. The percent inhibition of writhing was calculated from the average number of writhes in the control (non-drug) group. Each data point is the mean (±standarderror) for five mice. The ED50 was defined as the dose of agonist that inhibited mean writhing by 50%. […] Each mouse was only used once. All drugs were administered subcutaneously (1 ml/100 g bwt) 20 min. before the injection of acetic acid.

The target of assay [2] is T2, peripheral opioid receptors (Mus musculus, UniProt P42866).
T2 construct: Mice maintained (6 mice/cage) on 0.01M saccharin water with 1 g/1 morphine sulfate; from tissue; host or cells: living morphine-maintained mice (in vivo test; endogenous receptor)
Put plainly: precipitated diarrhea in morphine-maintained mice (peripheral opioid activity) and comparison with the writhing test. Details: ED50 (diarrhea): unit not given beside the values. Particulars: for Ratio (AD50 mouse writhing test / ED50 mouse diarrhea test): higher ratio = greater relative antagonism of peripheral opioid receptors; for ED50: mouse, 0.5 h; for ED50 / ED50 (diarrhea): morphine-maintained mice, antagonist subcutaneous or oral, 30 min observation; for ED50 (diarrhea): 30 min. The assay is classed as in vivo. On the procedure:
Determinations of peripheral opioid activity were conducted. Mice maintained (6 mice/cage) on 0.01M saccharin water with 1 g/1 morphine sulfate for a minimum of 10 days with mice averaging 3.0^+ g water/mouse/day for at least three days are used as subjects. The morphine water was removed 45 min. prior to injection with the proposed opioid antagonist. Initial testing consisted of 5 mice/dose of compound. The antagonist was given by the subcutaneous or oral, route of administration,and the mice were placed in 11-14"×4 7/12 I.D. clear plastic cylinders with white paper towels used for a floor.
The mice were then monitored visually for 30 minutes post-injection for the presence of jumping and of diarrhea. Jumping was scored as positive if at least one jump occurred in 30 min. Diarrhea was scored as positive when feces were moist enough to stain the white paper at the base of the cylinder. After 30 minutes of testing, the mice were placed back in original cages, put back on morphine water, and not tested again for 48 hrs. Lower doses of the antagonist compounds were tested until threshold doses for diarrhea were determined. Diarrhea is a peripherally mediated sign of precipitated opiate abstinence.
The extent of the effect on peripheral activity compared to central activity of the present compounds can-be determined by comparing the AD50 for the mouse writhing test with the ED50 for the mouse diarrhea test. The higher the ratio, the greater the relative antagonism of the peripheral opioid receptors by a particular compound.
On the technique in general: An intraperitoneal irritant provokes the stretching counted in writhing tests.

The target of assay [3] is T3, mu receptor (Rattus norvegicus, UniProt P33535).
T3 construct: rat whole brain minus cerebellum for mu was homogenized; from tissue; host or cells: brain of male Sprague Dawley rats, whole brain minus cerebellum, homogenate fraction
Put plainly: opioid receptor binding assay, [3H] NAL (tritiated naloxone), mu receptor. Details: species or system rat (Male Sprague Dawley), brain minus cerebellum. The procedure:
This assay was conducted by the following procedure.
Male Sprague Dawley rats for mu site experiments were sacrificed via decapitation and the brains were removed. The brain tissue, rat whole brain minus cerebellum for mu was homogenized in a Teflon and glass tissue homogenizer. A supernatant I, pellet IV, fraction was frozen in a nitrogen freezer at 1.33 g/ml concentration and stored for not longer than five weeks prior to use. Pellets were rehydrated with physiological buffer prior to use.
The reaction was initiated by the addition of the resuspended tissue which had been preincubated at 37° C. for 20 minutes. The reaction mixture was incubated in a 37° C. water bath for 20 minutes. The reaction was terminated by rapid filtration, (Brandel Cell Harvestor), through Whatman GF/B glass filters that had been presoaked in Krebs-Hepes buffer pH 7.4. The filters were then washed 2x with 5 ml of ice cold Krebs-Hepes buffer pH 7.4. Washed filters were placed in scintillation vials and 10 ml RedySolv, (Brandel), was added and samples counted in a Searle D-300 beta counter. Means and standard error statistics were calculated for triplicate experimental determinations in certain cases. The incubation time for the reaction mixture was 20 minutes at 37° C.
Ki values were calculated using a minitab statistical program according to the following formula: [formula] wherein IC50 is the concentration at which 50% of the ^3 H ligand is displaced by the test compounds and KD is the dissociation constant for the ^3 H ligand at the receptor site. KD can be determined as described by Bennett, "Methods in Binding Studies", Neurotransmitter Receptor Binding, Yamamura, et al., ed., p. 57-90, Raven Press, N.Y. (1978) incorporated herein by reference.
In the Table, column 1 sets forth the Example Number of the compound evaluated, column 2 the Ki value in nanomolar (nM) at the mu receptor and columns 3 and 4 the percent displacement by the test compound at the indicated concentration, i.e., 10 nm or 100 nm.

Where [4] appears, read: 20 min, read-out: % displacement at 10 nM.
Where [5] appears, read: 20 min, read-out: % displacement at 100 nM.
Where [6] appears, read: 20 min, read-out: % displacement at 10 nM, 10 nM test compound, [3H] naloxone 0.5 nM.
The mark [7] stands for this setting: 20 min, read-out: % displacement at 100 nM, 100 nM test compound, [3H] naloxone 0.5 nM.
Where [8] appears, read: [3H] naloxone 0.5 nM, pH 7.4, 37° C., 20 min.

T3 sequence (P33535 whole entry): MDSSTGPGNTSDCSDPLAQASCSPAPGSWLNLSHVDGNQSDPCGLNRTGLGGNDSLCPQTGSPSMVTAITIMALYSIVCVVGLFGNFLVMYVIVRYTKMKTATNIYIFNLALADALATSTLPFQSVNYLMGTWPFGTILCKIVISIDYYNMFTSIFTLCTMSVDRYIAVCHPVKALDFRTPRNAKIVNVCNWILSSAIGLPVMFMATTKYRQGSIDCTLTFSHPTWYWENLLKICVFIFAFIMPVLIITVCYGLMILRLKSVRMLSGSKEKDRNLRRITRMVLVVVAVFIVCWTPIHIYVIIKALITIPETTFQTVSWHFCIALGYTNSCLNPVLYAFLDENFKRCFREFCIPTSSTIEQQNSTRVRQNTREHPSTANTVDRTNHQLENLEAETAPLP
T2 sequence (P42866 whole entry): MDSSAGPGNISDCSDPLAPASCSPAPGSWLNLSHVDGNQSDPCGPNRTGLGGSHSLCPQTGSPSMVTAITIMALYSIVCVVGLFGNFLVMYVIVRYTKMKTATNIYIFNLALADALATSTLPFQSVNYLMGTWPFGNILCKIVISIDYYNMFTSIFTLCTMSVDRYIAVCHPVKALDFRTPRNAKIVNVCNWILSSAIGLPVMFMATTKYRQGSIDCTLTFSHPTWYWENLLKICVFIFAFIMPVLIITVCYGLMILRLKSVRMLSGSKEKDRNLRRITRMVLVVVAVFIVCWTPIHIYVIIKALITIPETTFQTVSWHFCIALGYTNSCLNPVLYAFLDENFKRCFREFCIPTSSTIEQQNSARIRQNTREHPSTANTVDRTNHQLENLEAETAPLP
T1 sequence (P42866 whole entry): as above

In general, ED50 refers to the dose that gives a 50% effect, or the effect in half of the subjects. The Ki is the dissociation constant of the complex between target and ligand, obtained from inhibition or displacement. For `CCOC(=O)C(Cc1ccccc1)CN1CC[C@@](C)(c2cccc(O)c2)[C@@H](C)C1` (relative stereo) [Example 4A, trans-4-(3-hydroxyphenyl)-3,4-dimethyl-a-(phenylmethyl)-1-piperidinepropanoic acid, ethyl ester hydrochloride], the AD50 in assay [1] came out at 1.08. In assay [2], the “Ratio (AD50 mouse writhing test / ED50 mouse diarrhea test)” value is 9 and it took a dose of 0.012 mg/kg to reach the 50% effect level (ED50). The compound also registered a Ki in assay [3] of 1.38 nM. Also, the inhibition at 0.01 µM in assay [3] (setting [4]) came out at 92%. In addition, the inhibition at 0.1 µM in assay [3] (setting [5]) was determined as 98%.

In turn, `C[C@H]1CN(CC(Cc2ccccc2)C(=O)O)CC[C@@]1(C)c1cccc(O)c1` (relative stereo) [Example 4B, 4-(3-hydroxyphenyl)-3,4-dimethyl-a-(phenylmethyl)-1-piperidinepropanoic acid monohydrate] showed an AD50 in assay [1] of 8.90. Moreover, in assay [2], the “Ratio (AD50 mouse writhing test / ED50 mouse diarrhea test)” value came out at 809 and the 50% effect level (ED50) was put at a dose of 0.011 mg/kg. Besides, the affinity in assay [3], expressed as Ki, was 2.62 nM. For the same compound, the inhibition at 0.01 µM in assay [3] (setting [4]) amounted to 83%. The inhibition at 0.1 µM in assay [3] (setting [5]) was determined as 97%.

In assay [1], `CCOC(=O)C(CC1CCCCC1)CN1CC[C@@](C)(c2cccc(O)c2)[C@@H](C)C1` (relative stereo) [Example 5A, 3-(3,4-dimethyl-4-(3-hydroxyphenyl)-1-piperidinyl]-2-(cyclohexylmethyl)propanoic acid ethyl ester hydrochloride] had an AD50 of 1.2. In assay [2], the “Ratio (AD50 mouse writhing test / ED50 mouse diarrhea test)” value amounted to 20 and the median effective dose (ED50) is 0.06 mg/kg. Affinity in assay [3] was put at a Ki of 13.8 nM. Besides, the inhibition at 0.01 µM in assay [3] (setting [6]) was determined as 61%. Further, the inhibition at 0.1 µM in assay [3] (setting [7]) amounted to 93%.

As to `C[C@H]1CN(CC(CC2CCCCC2)C(=O)O)CC[C@@]1(C)c1cccc(O)c1` (relative stereo) [Example 5B, 3-[3,4-dimethyl-4-(3-hydroxyphenyl)-1-piperidinyl]-2-(cyclohexylmethyl)-propanoic acid monohydrate], the AD50 in assay [1] stood at 1.6. In assay [2], the “Ratio (AD50 mouse writhing test / ED50 mouse diarrhea test)” value is 7 and the ED50 is 0.24 mg/kg. Further, the inhibitory constant (Ki) in assay [3] was determined as 1.11 nM. In addition, the inhibition at 0.01 µM in assay [3] (setting [6]) came out at 93%. Further, in assay [3] (setting [7]), the inhibition at 0.1 µM worked out at 99%.

`CCOC(=O)C(CCN1CC[C@@](C)(c2cccc(O)c2)[C@@H](C)C1)c1ccccc1` (relative stereo) [Example 8A, trans-4-[(3-Hydroxyphenyl)-3,4-dimethyl-1-piperidine]-2-phenyl butanoic acid, ethyl ester hydrochloride] showed an AD50 in assay [1] of 0.70. Further, in assay [2], the “Ratio (AD50 mouse writhing test / ED50 mouse diarrhea test)” value was determined as 35 and the 50% effect level (ED50) was put at a dose of 0.02 mg/kg. In assay [3] (setting [6]), the inhibition at 0.01 µM was found to be 88%. In addition, the inhibition at 0.1 µM in assay [3] (setting [7]) worked out at 95%. Besides, the affinity in assay [3] (setting [8]), expressed as Ki, was 2.01 nM.

Consider `C[C@H]1CN(CCC(C(=O)O)c2ccccc2)CC[C@@]1(C)c1cccc(O)c1` (relative stereo) [Example 8B, trans-4-[(3-Hydroxyphenyl)-3,4-dimethyl-1-piperidine]-2-phenyl butanoic acid hydrochloride], for which the AD50 in assay [1] stood at 0.64. Besides, in assay [2], the “Ratio (AD50 mouse writhing test / ED50 mouse diarrhea test)” value came out at 53 and the ED50 was 0.012 mg/kg. Further, in assay [3] (setting [6]), the inhibition at 0.01 µM was 100%. The inhibition at 0.1 µM in assay [3] (setting [7]) is 100%. In assay [3] (setting [8]), this compound returned a Ki of 0.27 nM.

Take `CNC(=O)CNC(=O)C(CCN1CC[C@@](C)(c2cccc(O)c2)[C@@H](C)C1)c1ccccc1` (relative stereo) [Example 13, N-(methyl)-2-[[4-[4-(3-hydroxyphenyl)-3,4-dimethyl-1-piperidinyl]-2-phenyl-1-oxobutyl]amino]acetamide monohydrochloride]: in assay [2], the “Ratio (AD50 mouse writhing test / ED50 mouse diarrhea test)” value is on record as > 125 and the ED50 amounted to 0.32 mg/kg. Besides, the inhibition at 0.01 µM in assay [3] (setting [6]) stood at 94%. In addition, in assay [3] (setting [7]), the inhibition at 0.1 µM is 95%. In assay [3] (setting [8]), this compound yielded a Ki of 0.43 nM.

On to `C[C@H]1CN(CCC(C(=O)NCC(N)=O)c2ccccc2)CC[C@@]1(C)c1cccc(O)c1` (relative stereo) [Example 14, trans-N-(2-amino-2-oxoethyl)-4-[3,4-dimethyl-4-(3-hydroxyphenyl)-1-piperidinyl]-2-phenylbutanamide monohydrochloride monohydrate], for which, in assay [2], the “Ratio (AD50 mouse writhing test / ED50 mouse diarrhea test)” value was > 43 and the ED50 was found to be 0.92 mg/kg. The same compound had a Ki in assay [3] of 6.42 nM. Also, the inhibition at 0.01 µM in assay [3] (setting [4]) is 87%. Moreover, in assay [3] (setting [7]), the inhibition at 0.1 µM is 93%.

Take `CC(C)COC(=O)CNC(=O)C(Cc1ccccc1)CN1CC[C@@](C)(c2cccc(O)c2)[C@@H](C)C1` (single isomer, unassigned) [Example 97D]: the AD50 in assay [1] (listed as 97D**, 1.25 mg/kg) is given as 32; in assay [1] (listed as 97D*, 1.25 mg/kg), 12.7. Moreover, the entries for the “Ratio (AD50 mouse writhing test / ED50 mouse diarrhea test)” value in assay [2] (listed as 97D*) and in assay [2] (listed as 97D**) were 317 and 53, respectively. In addition, the “ED50 (diarrhea)” value is 0.6 in assay [2] (listed as 97D**) and 0.04 in assay [2] (listed as 97D*).

As to `C[C@H]1CN(CC(Cc2ccccc2)C(=O)NCC(=O)OC2CCCCC2)CC[C@@]1(C)c1cccc(O)c1` (stereo partly shown) [Example 52, 2-[[2-(phenylmethyl)-1-oxo-3-[4-(3-hydroxyphenyl)-3,4-dimethyl-1-piperidinyl]propyl]amino]-ethanoic acid cyclohexyl ester monohydrochloride], in assay [2], the “Ratio (AD50 mouse writhing test / ED50 mouse diarrhea test)” value is reported as 40 and the 50% effective dose (ED50) was determined as 0.2 mg/kg. Moreover, in assay [3] (20 min, 10 nM test compound, [3H] naloxone 0.5 nM, read-out: % displacement at 10 nM), the inhibition at 0.01 µM stood at 53%. For the same compound, in assay [3] (20 min, 100 nM test compound, [3H] naloxone 0.5 nM, read-out: % displacement at 100 nM), the inhibition at 0.1 µM was determined as 92%.

`CCOC(=O)CCCNC(=O)C(Cc1ccccc1)CN1CC[C@@](C)(c2cccc(O)c2)[C@@H](C)C1` (stereo partly shown) [Example 61, 4-[[3-[4-(3-hydroxyphenyl)-3,4-dimethyl-1-piperidinyl]-1-oxo-2-(phenylmethyl)propyl]-amino]butanoic acid ethyl ester monohydrochloride monohydrate]: in assay [2], the “Ratio (AD50 mouse writhing test / ED50 mouse diarrhea test)” value is 66 and the ED50 came to 0.05 mg/kg. Also, in assay [3] (setting [6]), the inhibition at 0.01 µM came to 98%. The inhibition at 0.1 µM in assay [3] (setting [7]) is 99%. The compound further returned a Ki in assay [3] (setting [8]) of 1.91 nM.
